Tests used:
SK-MEL-2 = experiment: Growth inhibition of human SK-MEL-2 cells assessed as cell growth at 0.1 uM incubated for 48 hrs by sulforhodamine B assay relative to control; type: functional; details: SK-MEL-2, 48 h, read-out: Activity
HCT-15 = experiment: Growth inhibition of human HCT15 cells assessed as cell growth at 0.1 uM incubated for 48 hrs by sulforhodamine B assay relative to control; type: functional; details: HCT-15, 48 h, read-out: Activity
U-251 = experiment: Growth inhibition of human U251 cells assessed as cell growth at 0.01 uM incubated for 48 hrs by sulforhodamine B assay relative to control; type: functional; details: U-251, 48 h, read-out: Activity
MOLT-4 = experiment: Growth inhibition of human MOLT4 cells assessed as cell growth at 1 uM incubated for 48 hrs by sulforhodamine B assay relative to control; type: functional; details: MOLT-4, 48 h, read-out: Activity
Hs-578T = experiment: Growth inhibition of human Hs578T cells assessed as cell growth at 0.1 uM incubated for 48 hrs by sulforhodamine B assay relative to control; type: functional; details: read-out: Activity
UACC-62 = experiment: Growth inhibition of human UACC62 cells assessed as cell growth at 0.1 uM incubated for 48 hrs by sulforhodamine B assay relative to control; type: functional; details: UACC-62, 48 h, read-out: Activity
T47D = experiment: Growth inhibition of human T47D cells assessed as cell growth at 0.01 uM incubated for 48 hrs by sulforhodamine B assay relative to control; type: functional; details: read-out: Activity
IGROV-1 = experiment: Growth inhibition of human IGROV1 cells incubated for 48 hrs by sulforhodamine B assay; type: functional, cell-based; details: IGROV-1, 48 h
NCI-H322M [1] = experiment: Growth inhibition of human NCI-H322M cells incubated for 48 hrs by sulforhodamine B assay; type: functional, cell-based
CAKI-1 = experiment: Growth inhibition of human Caki1 cells assessed as cell growth at 0.1 uM incubated for 48 hrs by sulforhodamine B assay relative to control; type: functional; details: CAKI-1, 48 h, read-out: Activity
BT-549 [2] = experiment: Growth inhibition of human BT549 cells assessed as cell growth at 0.01 uM incubated for 48 hrs by sulforhodamine B assay relative to control; type: functional; details: BT-549, 48 h, read-out: Activity
SW-620 = experiment: Growth inhibition of human SW620 cells assessed as cell growth at 0.1 uM incubated for 48 hrs by sulforhodamine B assay relative to control; type: functional; details: SW-620, 48 h, read-out: Activity
HL-60(TB) = experiment: Growth inhibition of human HL-60(TB) cells assessed as cell growth at 0.1 uM incubated for 48 hrs by sulforhodamine B assay relative to control; type: functional; details: HL-60, 48 h, read-out: Activity
SF-295 = experiment: Growth inhibition of human SF295 cells assessed as cell growth at 100 uM incubated for 48 hrs by sulforhodamine B assay relative to control; type: functional; details: SF-295, 48 h, read-out: Activity
OVCAR-3 = experiment: Growth inhibition of human OVCAR3 cells assessed as cell growth at 0.01 uM incubated for 48 hrs by sulforhodamine B assay relative to control; type: functional; details: OVCAR-3, 48 h, read-out: Activity
SNB-19 [3] = experiment: Growth inhibition of human SNB19 cells assessed as cell growth at 0.1 uM incubated for 48 hrs by sulforhodamine B assay relative to control; type: functional; details: SNB-19, 48 h, read-out: Activity
SNB-19 [4] = experiment: Growth inhibition of human SNB19 cells assessed as cell growth at 100 uM incubated for 48 hrs by sulforhodamine B assay relative to control; type: functional; details: SNB-19, 48 h, read-out: Activity
BT-549 [5] = experiment: Growth inhibition of human BT549 cells incubated for 48 hrs by sulforhodamine B assay; type: functional, cell-based; details: BT-549, 48 h
SK-MEL-28 = experiment: Growth inhibition of human SK-MEL-28 cells assessed as cell growth at 1 uM incubated for 48 hrs by sulforhodamine B assay relative to control; type: functional; details: SK-MEL-28, 48 h, read-out: Activity
MDA-MB-468 = experiment: Growth inhibition of human MDA-MB-468 cells assessed as cell growth at 0.01 uM incubated for 48 hrs by sulforhodamine B assay relative to control; type: functional; details: MDA-MB-468, 48 h, read-out: Activity
M14 = experiment: Growth inhibition of human M14 cells assessed as cell growth at 0.1 uM incubated for 48 hrs by sulforhodamine B assay relative to control; type: functional; details: M14, 48 h, read-out: Activity
NCI-H522 = experiment: Growth inhibition of human NCI-H522 cells assessed as cell growth at 1 uM incubated for 48 hrs by sulforhodamine B assay relative to control; type: functional; details: NCI-H522, 48 h, read-out: Activity
ACHN = experiment: Growth inhibition of human ACHN cells incubated for 48 hrs by sulforhodamine B assay; type: functional, cell-based
NCI-H322M [6] = experiment: Growth inhibition of human NCI-H322M cells assessed as cell growth at 0.01 uM incubated for 48 hrs by sulforhodamine B assay relative to control; type: functional; details: read-out: Activity
UO-31 = experiment: Growth inhibition of human UO31 cells assessed as cell growth at 100 uM incubated for 48 hrs by sulforhodamine B assay relative to control; type: functional; details: UO-31, 48 h, read-out: Activity
SK-MEL-5 = experiment: Growth inhibition of human SK-MEL-5 cells assessed as cell growth at 100 uM incubated for 48 hrs by sulforhodamine B assay relative to control; type: functional; details: SK-MEL-5, 48 h, read-out: Activity
CCRF-CEM [7] = experiment: Growth inhibition of human CCRF-CEM cells assessed as cell growth at 100 uM incubated for 48 hrs by sulforhodamine B assay relative to control; type: functional; details: read-out: Activity
KM12 = experiment: Growth inhibition of human KM12 cells incubated for 48 hrs by sulforhodamine B assay; type: functional, cell-based; details: KM12, 48 h
786-0 = experiment: Growth inhibition of human 786-0 cells incubated for 48 hrs by sulforhodamine B assay; type: functional, cell-based; details: 786-0, 48 h
CCRF-CEM [8] = experiment: Growth inhibition of human CCRF-CEM cells assessed as cell growth at 0.01 uM incubated for 48 hrs by sulforhodamine B assay relative to control; type: functional; details: read-out: Activity
[9] = read-out: LC50 (the source's name)
[10] = read-out: pLC50 (the source's name) (converted)

## COc1cc(Cl)cc(-c2nn(-c3cccc(NC(=O)Nc4cccc(C(F)(F)F)c4)c3)cc2-c2ccncc2)c1
SK-MEL-2
  growth at 0.1 µM: 55%
HCT-15
  growth at 0.1 µM: 83%
U-251
  growth at 0.01 µM: 95%
MOLT-4
  growth at 1 µM: 55%
Hs-578T
  growth at 0.1 µM: 93%
UACC-62
  growth at 0.1 µM: 96%
T47D
  growth at 0.01 µM: 97%
IGROV-1; read-out: GI50
  GI50: 2.56 µM
IGROV-1; [9]
  CC50: > 100 µM
IGROV-1; read-out: TGI
  TGI: 22.7 µM
IGROV-1; read-out: pGI50 (converted)
  GI50: 2.88 µM
IGROV-1; [10]
  CC50: > 100 µM
IGROV-1; read-out: pTGI (converted)
  TGI: 22.9 µM
NCI-H322M [1]; read-out: GI50
  GI50: 2.53 µM
NCI-H322M [1]; [9]
  CC50: > 100 µM
NCI-H322M [1]; read-out: TGI
  TGI: 22.9 µM
NCI-H322M [1]; read-out: pGI50 (converted)
  GI50: 2.63 µM
NCI-H322M [1]; [10]
  CC50: > 100 µM
NCI-H322M [1]; read-out: pTGI (converted)
  TGI: 22.4 µM
CAKI-1
  growth at 0.1 µM: 104%
BT-549 [2]
  growth at 0.01 µM: 107%
SW-620
  growth at 0.1 µM: 100%
HL-60(TB)
  growth at 0.1 µM: 98%
SF-295
  growth at 100 µM: -53%
OVCAR-3
  growth at 0.01 µM: 100%
SNB-19 [3]
  growth at 0.1 µM: 96%
SNB-19 [4]
  growth at 100 µM: -13%
BT-549 [5]; read-out: GI50
  GI50: 2.22 µM
BT-549 [5]; [9]
  CC50: > 100 µM
BT-549 [5]; read-out: TGI
  TGI: 55 µM
BT-549 [5]; read-out: pGI50 (converted)
  GI50: 2.24 µM
BT-549 [5]; [10]
  CC50: > 100 µM
BT-549 [5]; read-out: pTGI (converted)
  TGI: 5.62 µM
SK-MEL-28
  growth at 1 µM: 82%
MDA-MB-468
  growth at 0.01 µM: 94%
M14
  growth at 0.1 µM: 93%
NCI-H522
  growth at 1 µM: 33%
ACHN; read-out: GI50
  GI50: 1.72 µM
ACHN; [9]
  CC50: > 100 µM
ACHN; read-out: TGI
  TGI: 15.2 µM
ACHN; read-out: pGI50 (converted)
  GI50: 1.7 µM
ACHN; [10]
  CC50: > 100 µM
ACHN; read-out: pTGI (converted)
  TGI: 16.2 µM
NCI-H322M [6]
  growth at 0.01 µM: 99%
UO-31
  growth at 100 µM: -20%
SK-MEL-5
  growth at 100 µM: -99%
CCRF-CEM [7]
  growth at 100 µM: -18%
KM12; read-out: GI50
  GI50: 0.611 µM
KM12; [9]
  CC50: > 100 µM
KM12; read-out: TGI
  TGI: 47 µM
KM12; read-out: pGI50 (converted)
  GI50: 6.17 µM
KM12; [10]
  CC50: > 100 µM
KM12; read-out: pTGI (converted)
  TGI: 4.79 µM
786-0; read-out: GI50
  GI50: 1.94 µM
786-0; [9]
  CC50: 67.1 µM
786-0; read-out: TGI
  TGI: 57.5 µM
786-0; read-out: pGI50 (converted)
  GI50: 1.95 µM
786-0; [10]
  CC50: 67.6 µM
786-0; read-out: pTGI (converted)
  TGI: 6.76 µM
CCRF-CEM [8]
  growth at 0.01 µM: 98%

Reference: ChEMBL document CHEMBL4308841, “Synthesis, in vitro antiproliferative activity, and kinase inhibitory effects of pyrazole-containing diarylureas and diarylamides” (Eur J Med Chem, 2018)
